The text below walks through data of the supplement of paper PMC10307832.

Common to all, as to test: relative viability (nuclei count vs DMSO), 5 days (fraction); higher = more cells survive
Compound in the test “Veliparib + Pictilisib”: C[C@]1(c2nc3c(C(N)=O)cccc3[nH]2)CCCN1 [Veliparib] + CS(=O)(=O)N1CCN(Cc2cc3nc(-c4cccc5[nH]ncc45)nc(N4CCOCC4)c3s2)CC1 [Pictilisib] (partner 1 µM)
A digest of the protocol: (§1)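 After 5 days of treatment, lung cancer cells in 1536-well plates were fixed and stained in a single step (final 0.05% Triton X-100, 1% formaldehyde, 1 ug/ml Hoechst) and their nuclei counted on 4× images. Treatment had been applied by pin tool the day after seeding as one drug alone or as a fixed anchor-drug dose with five library-drug doses (not always all listed) in √10 steps. Relative viability is the nuclei count of treated wells divided by that of vehicle wells, and values are medians of duplicate plates.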

Compound in the test “Veliparib + Linsitinib”: C[C@]1(c2nc3c(C(N)=O)cccc3[nH]2)CCCN1 [Veliparib] + C[C@]1(O)C[C@@H](c2nc(-c3ccc4ccc(-c5ccccc5)nc4c3)c3c(N)nccn32)C1 [Linsitinib] (partner 1 µM)
A digest of the protocol: as §1

Compound in test [1]: COC1=CC=C(C=C1)CN2C=CC3=C2C=C(C=C3)C(=O)NO + COc1cc2c(Oc3ccc(NC(=O)C4(C(=O)Nc5ccc(F)cc5)CC4)cc3F)ccnc2cc1OCCCN1CCOCC1 [Foretinib] (partner 0.25 µM)
The method in brief:
as §1

Compound in the test “Veliparib + Crizotinib”: C[C@]1(c2nc3c(C(N)=O)cccc3[nH]2)CCCN1 [Veliparib] + C[C@@H](Oc1cc(-c2cnn(C3CCNCC3)c2)cnc1N)c1c(Cl)ccc(F)c1Cl [Crizotinib] (partner 1 µM)
A digest of the protocol:
as §1

As for SW 1573, the relative viability was 0.459 with Veliparib + Pictilisib (first compound 0.02 µM); 0.587 with Veliparib + Pictilisib (first compound 0.06325 µM); 0.476 in the test with Veliparib + Pictilisib (first compound 0.2 µM); 0.497 in the test with Veliparib + Pictilisib (first compound 0.6325 µM); 0.418 in the test with Veliparib + Pictilisib (first compound 2 µM); 0.977 in the test with Veliparib + Linsitinib (first compound 0.02 µM). Besides, the relative viability amounted to 0.845 with Veliparib + Linsitinib (first compound 0.06325 µM); 0.819 with Veliparib + Linsitinib (first compound 0.2 µM); 0.767 with Veliparib + Linsitinib (first compound 0.6325 µM); 0.79 in the test with Veliparib + Linsitinib (first compound 2 µM); 0.877 in test [1] (first compound 0.253 µM); 0.865 in test [1] (first compound 0.8 µM). Besides, the relative viability is 0.751 in test [1] (first compound 2.53 µM); 0.694 in test [1] (first compound 8 µM); 0.986 with Veliparib + Crizotinib (first compound 0.02 µM); 0.629 with Veliparib + Crizotinib (first compound 0.06325 µM); 0.781 in the test with Veliparib + Crizotinib (first compound 0.2 µM); 0.85 with Veliparib + Crizotinib (first compound 0.6325 µM). The relative viability with Veliparib + Crizotinib (first compound 2 µM) worked out at 0.79.
